The results in this text go back to US11345756B2, “CCR3 inhibition for ocular angiogenesis and macular degeneration” (University of Kentucky Research Foundation, priority 2006, dated 2022).

In the assay the test system is CNV (choroidal neovascularization). Put plainly: Laser-induced CNV volume, confocal evaluation of isolectin B4 stained RPE-choroid flatmounts. Type of assay: in vivo. The settings on record: C57BL/6J mice, laser injury, blockade of CCR3 ligand by neutralizing antibody injected into the vitreous humor; compared to control antibodies, all Ps<0.001. The procedure:
Laser photocoagulation (532 nm, 200 mW, 100 ms, 75 μm) (OCULIGHT™ GL, Index Corporation) was performed (volume studies: 3/eye; protein analyses/flow cytometry: 12/eye) on both eyes of each animal to induce CNV (choroidal neovascularization). CNV volumes were measured by scanning laser confocal microscope (TCS SP, Leica) with 0.5% FITC-Griffonia simplicifolia Isolectin B4 (Vector Laboratories). CNV was induced by laser injury in C57BL/6J and Ccr3^−/− mice and volumes measured 7 days later by confocal evaluation of Griffonia simplicifolia Isolectin B4 staining of RPE-choroid flatmounts. Neutralizing antibodies (Ab) against CCR3, eotaxin (CCL-11), eotaxin-2 (CCL-24), RANTES, MCP-3 or control goat IgG or rat IgG2a were injected into the vitreous humor following injury.
Because the probability of each laser lesion developing CNV is influenced by the group to which it belongs, the mouse, the eye, and the laser spot, the mean lesion volumes were compared using a linear mixed model with a split plot repeated measures design. The whole plot factor was the genetic group to which the animal belonged while the split plot factor was the eye. Statistical significance was determined at the 0.05 level. Post hoc comparison of means was constructed with a Bonferroni adjustment for multiple comparisons.

On to eotaxin, for which the “suppression of CNV” value was 45%.
